# Patent publication US5889018A, “Heterocyclic compounds, pharmaceutical compositions comprising them and process for the preparation thereof” (Egis Gyogyszergyar RT., priority 1994, dated 1999)
# Test system: not listed separately
# Experiment: in vivo
# Conditions: mouse, ip, NMRI mice, 7 days observation, read-out: LD50 (mg/kg, i.p.)
# Description: White mice belonging to the NMRI strain (body weight 20 to 25 g. both male and female) were used, 6 animals for each dose. The test compound was administered orally in a volume of 20 ml/kg, the maximum oral and intraperitoneal doses were 1000 mg/kg and 300 mg/kg, respectively. […] The mice were kept under usual laboratory conditions.
row,SMILES,LD50 at 168 h
1,"COc1cc2cc(C)nc(C=Cc3ccc(C#N)cc3)c2c(OC)c1OC [Example 9, 1-(4-cyanostyryl)-3-methyl-6,7,8-trimethoxyisoquinoline]",> 300 mg/kg
2,"COc1ccc(C=Cc2nccc3cc(OC)c(OC)cc23)cc1OC [Example 7, 1-(3,4-dimethoxystyryl)-6,7-dimethoxyisoquinoline]",> 300 mg/kg
3,"COc1ccc(C=Cc2nccc3cc4c(cc23)OCO4)cc1OC [Example 20, 1-(3,4-dimethoxystyryl)-6,7-methylenedioxyisoquinoline]",> 300 mg/kg
4,"COc1ccc(C=Cc2nccc3cc(OC)c(OC)cc23)cc1 [Example 21, 6,7-dimethoxy-1-(4-methoxystyryl)-isoquinoline]",> 300 mg/kg
5,"COc1cc2cc(C)nc(C=Cc3ccc(Cl)cc3)c2cc1OC [Example 2, 1-(4-chlorostyryl)-3-methyl-6,7-dimethoxyisoquinoline]",> 300 mg/kg
6,"Clc1ccc(C=Cc2nccc3ccccc23)c(Cl)c1 [Example 8, 1-(2,4-dichlorostyryl)-isoquinoline]",> 300 mg/kg
7,"Cc1cc2cc3c(cc2c(C=Cc2cccc(Br)c2)n1)OCO3 [Example 19, 1-(3-bromostyryl)-3-methyl-6,7-methylenedioxyisoquinoline]",> 300 mg/kg
8,"FC(F)(F)c1ccc(C=Cc2nccc3cc4c(cc23)OCO4)cc1 [Example 3, 6,7-methylenedioxy-1-[(4-trifluoromethyl)-styryl]-isoquinoline]",> 300 mg/kg
9,"COc1cc2ccnc(C=Cc3ccc(F)cc3)c2cc1OC [Example 5, 1-(4-fluorostyryl)-6,7-dimethoxyisoquinoline]",> 300 mg/kg
10,"COc1cc2ccnc(C=Cc3ccc(C(F)(F)F)cc3)c2cc1OC [Example 6, 6,7-dimethoxy-1-[4-(trifluoromethyl)-styryl]-isoquinoline]",> 300 mg/kg
11,"COc1cc2cc(C)nc(C=Cc3ccc([N+](=O)[O-])cc3)c2cc1OC [Example 4, 3-methyl-6,7-dimethoxy-1-(4-nitrostyryl)-isoquinoline]",> 300 mg/kg

# Same assay, conditions: mouse, po, NMRI mice, 7 days observation, read-out: LD50 (mg/kg, p.o.)
row,SMILES,LD50 at 168 h
1,"COc1cc2cc(C)nc(C=Cc3ccc(C#N)cc3)c2c(OC)c1OC [Example 9, 1-(4-cyanostyryl)-3-methyl-6,7,8-trimethoxyisoquinoline]",> 1000 mg/kg
2,"COc1ccc(C=Cc2nccc3cc(OC)c(OC)cc23)cc1OC [Example 7, 1-(3,4-dimethoxystyryl)-6,7-dimethoxyisoquinoline]",1000 mg/kg
3,"COc1ccc(C=Cc2nccc3cc4c(cc23)OCO4)cc1OC [Example 20, 1-(3,4-dimethoxystyryl)-6,7-methylenedioxyisoquinoline]",> 1000 mg/kg
4,"COc1ccc(C=Cc2nccc3cc(OC)c(OC)cc23)cc1 [Example 21, 6,7-dimethoxy-1-(4-methoxystyryl)-isoquinoline]",> 1000 mg/kg
5,"COc1cc2cc(C)nc(C=Cc3ccc(Cl)cc3)c2cc1OC [Example 2, 1-(4-chlorostyryl)-3-methyl-6,7-dimethoxyisoquinoline]",> 1000 mg/kg
6,"Clc1ccc(C=Cc2nccc3ccccc23)c(Cl)c1 [Example 8, 1-(2,4-dichlorostyryl)-isoquinoline]",> 1000 mg/kg
7,"Cc1cc2cc3c(cc2c(C=Cc2cccc(Br)c2)n1)OCO3 [Example 19, 1-(3-bromostyryl)-3-methyl-6,7-methylenedioxyisoquinoline]",> 1000 mg/kg
8,"FC(F)(F)c1ccc(C=Cc2nccc3cc4c(cc23)OCO4)cc1 [Example 3, 6,7-methylenedioxy-1-[(4-trifluoromethyl)-styryl]-isoquinoline]",> 1000 mg/kg
9,"COc1cc2ccnc(C=Cc3ccc(F)cc3)c2cc1OC [Example 5, 1-(4-fluorostyryl)-6,7-dimethoxyisoquinoline]",> 1000 mg/kg
10,"COc1cc2ccnc(C=Cc3ccc(C(F)(F)F)cc3)c2cc1OC [Example 6, 6,7-dimethoxy-1-[4-(trifluoromethyl)-styryl]-isoquinoline]",> 1000 mg/kg
11,"COc1cc2cc(C)nc(C=Cc3ccc([N+](=O)[O-])cc3)c2cc1OC [Example 4, 3-methyl-6,7-dimethoxy-1-(4-nitrostyryl)-isoquinoline]",> 1000 mg/kg

# Test system: Male Wistar rats
# Experiment: Vogel Test (Lick Conflict Test), anxiolytic activity
# Type: in vivo
# Conditions: Rattus norvegicus, po, 1 h, p.o., one hour before testing, read-out: Minimum effective dose (mg/kg, p.o.)
# Description: 1. Vogel Test (Lick Conflict Test)
# Male Wistar rats of 160 to 180 g body weight were kept free of food and drinking water for 24 and 48 hours, respectively. The test and carrier substances (0.4% methyl-cellulose) were administered orally one hour before testing. Groups consisting of 8 animals were used. The rats within the experimental chamber were provided with drinking water through an inserted tube. After the animals' each twenty lapping for water the device emitted a 1.4 mA intensity electric shock through the drinking tube. During 5 minutes the shocks tolerated by the animals in order to quench their thirst were counted. The effect of treatment was expressed as the % increase of the tolerated shocks. The minimum effective dose (MED) was determined for each test compound (Vogel, J. R., Beer, B., Clody, D. E.: Psycho-pharmacologia (Berl.) 21, 1 /1971/).
row,SMILES,minimal effective dose
1,"COc1cc2cc(C)nc(C=Cc3ccc(C#N)cc3)c2c(OC)c1OC [Example 9, 1-(4-cyanostyryl)-3-methyl-6,7,8-trimethoxyisoquinoline]",0.01 mg/kg
2,"COc1ccc(C=Cc2nccc3cc(OC)c(OC)cc23)cc1 [Example 21, 6,7-dimethoxy-1-(4-methoxystyryl)-isoquinoline]",0.03 mg/kg
3,"FC(F)(F)c1ccc(C=Cc2nccc3cc4c(cc23)OCO4)cc1 [Example 3, 6,7-methylenedioxy-1-[(4-trifluoromethyl)-styryl]-isoquinoline]",1e-05 mg/kg
4,"COc1cc2ccnc(C=Cc3ccc(F)cc3)c2cc1OC [Example 5, 1-(4-fluorostyryl)-6,7-dimethoxyisoquinoline]",0.0003 mg/kg
5,"COc1cc2ccnc(C=Cc3ccc(C(F)(F)F)cc3)c2cc1OC [Example 6, 6,7-dimethoxy-1-[4-(trifluoromethyl)-styryl]-isoquinoline]",0.01 mg/kg
6,"COc1cc2cc(C)nc(C=Cc3ccc([N+](=O)[O-])cc3)c2cc1OC [Example 4, 3-methyl-6,7-dimethoxy-1-(4-nitrostyryl)-isoquinoline]",0.01 mg/kg
7,"CN1C(=O)CN=C(c2ccccc2)c2cc(Cl)ccc21 [Diazepam, reference compound]",0.1 mg/kg

# Test system: Male rats belonging to the Sprague Dawley strain
# Experiment: Elevated Plus Maze Test on Rat, anxiolytic activity
# Type: in vivo
# Conditions: Rattus norvegicus, po, 1 h; p.o., 60 minutes pretreatment; significant increase of time spent on the open arms; Sprague Dawley rats; read-out: Minimum effective dose (mg/kg, p.o.)
# Description: 1.2 Elevated Plus Maze Test on Rat
# The test was carried out with the aid of a wooden plus-shaped maze elevated to a height of 50 cm. Two arms (100 cm long and 15 cm wide)--opposite to one another--were enclosed up to a height of 40 cm along their longer sides and at the end. The other two arms were without walls (open arms). The central 15×15 cm part was open. Male rats belonging to the Sprague Dawley strain and weighing 220 to 260 g were used as test animals. After pretreatment lasting 60 minutes the animals were placed into the central part of the maze. During the 5 minutes observation period the following parameters were recorded: […]
# time spent on the open arms time spent on the closed arms number of open arm entries number of closed arm entries.
# The drug effect was expressed as percent increase of the time spent on the open arms and number of open arm entries. The minimum effective dose which caused a significant increase of the time spent on the open arms was calculated for every substance [Pelow, S., Chopin, P., File, S. E., Briley, M.: J. Neurocsi. Methods 14, 149-167 (1985)].
row,SMILES,minimal effective dose
1,"FC(F)(F)c1ccc(C=Cc2nccc3cc4c(cc23)OCO4)cc1 [Example 3, 6,7-methylenedioxy-1-[(4-trifluoromethyl)-styryl]-isoquinoline]",0.1 mg/kg
2,"CN1C(=O)CN=C(c2ccccc2)c2cc(Cl)ccc21 [Diazepam, reference compound]",2.5 mg/kg

# Same assay, conditions: elevated plus maze, relative to diazepam
row,SMILES,times more effective than diazepam
1,"FC(F)(F)c1ccc(C=Cc2nccc3cc4c(cc23)OCO4)cc1 [Example 3, 6,7-methylenedioxy-1-[(4-trifluoromethyl)-styryl]-isoquinoline]",25 times

# Test system: Male Wistar rats (Charles River)
# Experiment: Hole-Board Test, head-dipping activity
# Type: in vivo
# Conditions: Rattus norvegicus, po, 1 h, p.o., one hour before testing, from head-dipping activity, read-out: Minimum effective dose (mg/kg, p.o.)
# Description: The experiment was carried out according to a slightly modified method of File [File, S. E., Wardill, A. G., Psychopharmacologia, 44, 53-59, (1975)]. Male Wistar rats (Charles River) weighing 160-200 g were fasted for 24 hours prior to the experiment. They were treated orally in a volume of 5 ml/kg one hour before testing, a treated group consisted of 12 animals. The test compounds were suspended in 0,4 methylcellulose solution, the control group was treated with methylcellulose. All procedures were carried out in a quiet, air-conditioned laboratory between 9:00 and 13:00 hours at ambient temperature (23°+2° C.). Locomotor and head-dipping activity were measured using automated test chambers (Digiscan, OMNITECH Electronics Inc., Columbus, Ohio). The floor of each box contained 4 equally spaced holes (3.5 cm in diameter) through which rat could pop its head. Interruptions of infrared beams (16 of them is located 1.0 cm below and an other […] above the floor level) were automatically recorded by digiscan analyser and then transmitted to a computer and analysed by OASIS softwer. The hole-board testing involved placing a rat in the center of the floor and allowing it to explore for 5 minutes.
# At the end of each trial any boluses were removed and the box was thoroughly wiped. Minimum effective doses of the compounds were calculated from the head-dipping activity values.
row,SMILES,minimal effective dose
1,"COc1ccc(C=Cc2nccc3cc(OC)c(OC)cc23)cc1 [Example 21, 6,7-dimethoxy-1-(4-methoxystyryl)-isoquinoline]",0.01 mg/kg
2,"FC(F)(F)c1ccc(C=Cc2nccc3cc4c(cc23)OCO4)cc1 [Example 3, 6,7-methylenedioxy-1-[(4-trifluoromethyl)-styryl]-isoquinoline]",0.0001 mg/kg
3,"COc1cc2ccnc(C=Cc3ccc(C(F)(F)F)cc3)c2cc1OC [Example 6, 6,7-dimethoxy-1-[4-(trifluoromethyl)-styryl]-isoquinoline]",0.0001 mg/kg
4,"CN1C(=O)CN=C(c2ccccc2)c2cc(Cl)ccc21 [Diazepam, reference compound]",0.1 mg/kg
